{
  "source": "paper PMC7368294",
  "about": "(Proceedings of the National Academy of Sciences of the …, 2020)",
  "target": "T1, Dα1/Dβ1/Dβ2 nAChR (Drosophila melanogaster, UniProt P04755+P09478+P25162)",
  "T1 sequence (P09478 22-567)": "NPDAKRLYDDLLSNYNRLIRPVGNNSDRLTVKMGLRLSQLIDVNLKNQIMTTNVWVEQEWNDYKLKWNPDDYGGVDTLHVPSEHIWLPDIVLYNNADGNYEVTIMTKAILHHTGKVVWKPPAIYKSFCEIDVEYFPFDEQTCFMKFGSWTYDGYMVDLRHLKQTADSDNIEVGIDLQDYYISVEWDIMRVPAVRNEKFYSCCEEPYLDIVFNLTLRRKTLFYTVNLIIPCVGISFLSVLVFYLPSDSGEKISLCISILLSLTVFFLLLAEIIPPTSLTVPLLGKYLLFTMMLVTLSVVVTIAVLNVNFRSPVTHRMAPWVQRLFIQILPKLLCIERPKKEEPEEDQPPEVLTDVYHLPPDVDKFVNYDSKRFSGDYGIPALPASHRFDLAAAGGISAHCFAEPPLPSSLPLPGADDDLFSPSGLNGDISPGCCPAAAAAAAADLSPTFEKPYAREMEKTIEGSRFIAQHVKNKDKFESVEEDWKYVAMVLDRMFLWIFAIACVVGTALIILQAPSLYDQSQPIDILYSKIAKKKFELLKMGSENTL",
  "T1 sequence (P04755 25-521)": "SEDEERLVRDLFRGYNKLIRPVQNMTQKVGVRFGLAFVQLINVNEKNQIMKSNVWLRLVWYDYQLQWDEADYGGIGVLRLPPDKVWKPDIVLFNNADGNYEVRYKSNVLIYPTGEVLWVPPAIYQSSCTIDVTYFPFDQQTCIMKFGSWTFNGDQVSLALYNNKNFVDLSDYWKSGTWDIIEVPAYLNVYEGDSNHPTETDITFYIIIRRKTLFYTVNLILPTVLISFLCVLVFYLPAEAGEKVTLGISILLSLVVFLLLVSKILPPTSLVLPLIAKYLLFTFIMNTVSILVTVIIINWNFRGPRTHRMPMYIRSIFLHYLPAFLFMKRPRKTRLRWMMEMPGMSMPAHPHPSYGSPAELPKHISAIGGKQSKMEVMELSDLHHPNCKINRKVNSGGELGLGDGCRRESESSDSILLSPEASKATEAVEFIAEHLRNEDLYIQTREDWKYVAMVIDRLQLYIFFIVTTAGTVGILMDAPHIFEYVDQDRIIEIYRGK",
  "T1 sequence (P25162 19-519)": "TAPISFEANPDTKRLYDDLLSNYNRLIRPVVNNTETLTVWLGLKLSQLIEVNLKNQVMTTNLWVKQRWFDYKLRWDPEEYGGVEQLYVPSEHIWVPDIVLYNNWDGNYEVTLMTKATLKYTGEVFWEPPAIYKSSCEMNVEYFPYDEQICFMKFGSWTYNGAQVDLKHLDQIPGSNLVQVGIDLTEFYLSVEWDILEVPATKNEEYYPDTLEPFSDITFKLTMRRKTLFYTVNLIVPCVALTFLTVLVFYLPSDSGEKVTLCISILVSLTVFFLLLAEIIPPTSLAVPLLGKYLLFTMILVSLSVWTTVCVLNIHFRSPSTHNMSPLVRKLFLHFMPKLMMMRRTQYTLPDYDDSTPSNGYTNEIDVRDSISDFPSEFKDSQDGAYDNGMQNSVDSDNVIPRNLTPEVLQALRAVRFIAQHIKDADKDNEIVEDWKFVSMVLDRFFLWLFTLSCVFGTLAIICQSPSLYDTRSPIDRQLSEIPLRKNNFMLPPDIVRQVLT",
  "assay": "cell-based",
  "parameters": "species or system Xenopus laevis oocytes",
  "conditions": "Oocyte",
  "note": "Read-outs that look alike come from different tables or passages of the source.",
  "data": [
    {"smiles": "N#C/N=C1\\SCCN1Cc1ccc(Cl)nc1", "note": "[thiacloprid]", "values": [
      {"measurement": "Emax", "setting": "read-out: Thiacloprid / Imax", "value": "5.6 ± 0.5", "unit": "%"}
    ]},
    {"smiles": "CN/C(=N\\[N+](=O)[O-])NCc1cnc(Cl)s1", "note": "[clothianidin]", "values": [
      {"measurement": "Emax", "setting": "read-out: Clothianidin / Imax / ND", "value": "41.1 ± 1.1", "unit": "%"}
    ]},
    {"smiles": "O=[N+]([O-])NC1=NCCN1Cc1ccc(Cl)nc1", "note": "[imidacloprid]", "values": [
      {"measurement": "Emax", "setting": "read-out: Imidacloprid / Imax", "value": "24.4 ± 2.2", "unit": "%"}
    ]}
  ]
}
